Experimental data reported in patent US8946275B2, “Treatment of cancer using hypoxia activated prodrugs” (Threshold Pharmaceuticals, Inc., priority 2008, dated 2015).
≈ marks a conversion by molar mass, not a printed value. Like-named read-outs stand apart in the source and are kept apart here.

Assays:
[1] = tested on: PC-3 human prostate cancer cells; test: PC-3 ectopic xenograft, TH-302/docetaxel dosing schedules; format: in vivo, nude mice; details: single agent, TH-302 150 mg/kg ip once or Docetaxol 10 mg/kg iv once
[2] = tested on: HT1080 human fibrosarcoma cells; test: HT1080 ectopic xenograft, TH-302/doxorubicin dosing schedules; format: in vivo, nude mice; details: single agent, TH-302 100 mg/kg ip 1/wkx2wks or Dox 4 mg/kg iv 1/wkx2wks
Protocol: (§1) Anti-tumor activity was evaluated by tumor growth delay (TGD) and tumor growth inhibition (TGI). Body weight change, gross and microscopic assessment of tissue changes, and hematologic assays served for toxicity assessment. Testing in these models was conducted generally as follows. 1×10^6 (H460 human non-small cell lung cancer or HT1080 human fibrosarcoma cells) or 3×10^6 (PC-3 human prostate cancer cells) were implanted in the subcutaneous space of the right flank to obtain ectopic xenograft models. Randomization and dosing was initiated when tumors reached a certain size (100-150 mm^3). API grade of TH-302 was used in all experiments while docetaxel, gemcitabine, cisplatin, pemetrexed, and doxorubicin were purchased from commercial sources.
(§2) The H460 cells were prepared in 30% Matrigel and 70%. RPMI1640. Mice were anesthetized by isoflurane and were implanted subcutaneously with 1×10^6 cells (in 200 μl) at the flank position. We selected 110 mice bearing similar size tumors (˜100 mm^3) for the study. Mice bearing similar tumor size were randomly assigned into different groups. Treatment started on day 1 (7 days after tumor implantation) except as noted. TH-302 was administered intraperitoneally (IP) at 150 mg/kg, and docetaxel was administered intravenously (IV) at 10 mg/kg. Animals were observed daily and tumor measurements and body weights recorded twice weekly.
In a study conducted substantially as described above except the cells implanted were HT1080 human fibrosarcoma cells and 1×10^6 cells were implanted and mice were randomized into separate groups when their […]

[3] = Solubility of TH-302; format: physicochemical; details: organic solvent or mixture
[4] = tested on: H460 NSCLC; test: H460 ectopic lung cancer model, TH-302 with pemetrexed; format: in vivo, nude mice; details: PMX 150 mg/kg 1/wkx2wks IP; TH-302 50 mg/kg 5/wkx2wks IP; alone or combined
Protocol: Anti-tumor activity was evaluated by tumor growth inhibition (TGI) and tumor growth delay (TGD). Body weight change, gross and microscopic assessment of tissue changes, and hematologic assays served for toxicity assessment.
Testing in these models was conducted generally as follows. 1×10^6 H460 human non-small cell lung cancer or HT1080 human fibrosarcoma cells were implanted in the subcutaneous space of the right flank to obtain ectopic xenograft models. For the orthotopic pancreatic model, red-fluorescent protein (RFP) expressing MIA PaCa2 tumors were surgically implanted on the surface of the pancreas. The prostate metastatic model was created by the intraventricular injection of 3×10^6 luciferase-expressing PC-3 cells. […] API grade of TH-302 was used in all experiments while docetaxel, gemcitabine, doxorubicin and pemetrexed were purchased from commercial sources.

[5] = tested on: H460 NSCLC cells; test: H460 ectopic xenograft, TH-302/pemetrexed dosing schedules; format: in vivo, nude mice; details: single agent, TH-302 100 mg/kg ip Q7Dx2 or PMX 150 mg/kg ip Q7Dx2
Protocol: as §1, §2
In a study conducted substantially as described above except the cells implanted were H460 NSCLC cells and 1×10^6 cells were implanted and mice were randomized into separate groups when their tumors reached ˜100 mm^3 and the chemotherapeutic employed was pemetrexed at a dose of 150 mg/kg given once a week (Q7D) for two weeks IP and the TH-302 was given at 100 mg/kg given once a week (Q7D) for two weeks IP. […]

[6] = tested on: H460 human non-small cell lung cancer; test: H460 ectopic xenograft, TH-302/docetaxel dosing schedules; format: in vivo, nude mice; details: single agent, TH-302 100 mg/kg ip once or Docetaxol 10 mg/kg iv once
Protocol: as §1
as §2, with “TH-302 was administered intraperitoneally (IP) at 150 mg/kg, and docetaxel was administered intravenously (IV) at 10 mg/kg.” left out

[7] = tested on: Calu6 NSCLC; test: Calu-6 ectopic tumor model, TH-302 with doxorubicin; format: in vivo, nude mice; details: Dox 4 mg/kg IV Q7Dx2; TH-302 50 mg/kg IP QDx5/wkx2wks; alone or combined
[8] = tested on: HT29 colon cancer; test: HT-29 ectopic tumor model, TH-302 with 5FU; format: in vivo, nude mice
[9] = tested on: orthotopic prostate cancer PC-3 cells; test: Orthotopic PC-3 prostate cancer model, TH-302 with Taxol; format: in vivo, mice; details: single agents: Taxol 12 mg/kg; TH-302 30 or 50 mg/kg
Protocol: TH-302 was tested as monotherapy and in combination with Taxol (paclitaxel) in animals bearing highly invasive and metastatic orthotopic prostate cancer PC-3 cells. Animals were randomized into 6 groups of 8 mice each and then treated either with vehicle; Taxol (12 mg/kg, IV, twice a week for 4 consecutive weeks); TH-302 (30 or 50 mg/kg, IP, once a day for 5 days a week for 2 consecutive weeks); or Taxol in combination with TH-302 (using the same single agent regimens).

[10] = 5-FU 50 mg/kg IV Q3Dx4, TH-302 150 mg/kg IP Q7Dx3, alone or combined
[11] = TH-302 100 mg/kg IP Q3Dx5, alone or + 5-FU 50 mg/kg IV Q3Dx4

Cn1c(COP(=O)(NCCBr)NCCBr)cnc1[N+](=O)[O-] [TH-302, (2-bromoethyl)({[(2-bromoethyl)amino][(2-nitro-3-methylimidazol-4-yl)methoxy]phosphoryl})amine]
Days to 500 mm^3 [1]: 25 days | T/C [1]: 48.7% | TGD500, Days (vs. vehicle) [1]: 9 days | TGI [1]: 51.3% | Tn (tumor volume on Day n) ([1]; in mm³): 559.95 | Days to 500 mm^3 [2]: 22 days | T/C [2]: 25.3% | TGD500, Days (vs. vehicle) [2]: 10 days | TGI [2]: 74.7% | Tn (tumor volume on Day n) [2]: 334.66 | solubility ([3]; ethanol, even at higher temperatures, read-out: Highest solubility of TH-302 in ethanol): ~80 mg/mL (≈ 178 mM) | solubility ([3]; ethanol/TWEEN 80 or ethanol/TWEEN 80/DMA, depending on the ratio, read-out: Solubility of TH-302): ≤ 300 mg/mL | Days to 500 mm^3 [4]: 26 days | Days to 1000 mm^3 [4]: 34 days | T/C [4]: 38.4% | TGD500, Days (vs. vehicle) [4]: 12 days | TGD1000, Days (vs. vehicle) [4]: 10 days | TGI [4]: 61.6% | Tn (tumor volume on Day n) [4]: 507.13 | Days to 500 mm^3 [5]: 19 days | Days to 1000 mm^3 [5]: 30 days | T/C [5]: 49.7% | TGD500, Days (vs. vehicle) [5]: 7 days | TGD1000, Days (vs. vehicle) [5]: 9 days | TGI [5]: 50.3% | Tn (tumor volume on Day n) [5]: 598.34 | Days to 500 mm^3 [6]: 21 days | Days to 1000 mm^3 [6]: 31 days | T/C [6]: 42.5% | TGD500, Days (vs. vehicle) [6]: 8 days | TGD1000, Days (vs. vehicle) [6]: 11 days | TGI [6]: 57.5% | Tn (tumor volume on Day n) ([6]; in mm³): 531.74 | Days to 500 mm^3 [7]: 29 days | Days to 1000 mm^3 [7]: 39 days | T/C [7]: 59.2% | TGD500, Days (vs. vehicle) [7]: 11 days | TGD1000, Days (vs. vehicle) [7]: 8 days | TGI [7]: 40.8% | Tn (tumor volume on Day n) [7]: 695.67 | Days to 500 mm^3 [8, 10]: 28 days | Days to 1000 mm^3 [8, 10]: 46 days | T/C [8, 10]: 48.4% | TGD500, Days (vs. vehicle) [8, 10]: 6 days | TGD1000, Days (vs. vehicle) [8, 10]: 14 days | TGI [8, 10]: 51.6% | Tn (tumor volume on Day n) [8, 10]: 565.70 | Days to 500 mm^3 [8, 11]: 29 days | Days to 1000 mm^3 [8, 11]: 41 days | T/C [8, 11]: 52.0% | TGD500, Days (vs. vehicle) [8, 11]: 7 days | TGD1000, Days (vs. vehicle) [8, 11]: 9 days | TGI [8, 11]: 48.0% | Tn (tumor volume on Day n) [8, 11]: 580.55 | Primary tumor growth during the treatment period [9]: significantly inhibited primary tumor growth
